For 72 compounds, IC50 and IC90 results are on record in PubChem BioAssay AID449762 (Southern Research Specialized Biocontainment Screening …, 2010).

Results filed as inconclusive are left out. Some results are limits rather than exact numbers.

In general, IC50 refers to the concentration needed to halve the response being measured. What is called IC90 is the point of the concentration-response curve where the effect stands at 90%. Low values mean greater potency, high ones weaker potency.

The subject of this experiment is M. tuberculosis H37Rv growth inhibition, 7H9 media. Briefly: M. tuberculosis growth inhibition, HTS (AID 449762).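 On all read-outs here: bacterial growth assessed after seven days of incubation.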 The settings on record: for IC90: measured here: IC90 growth inhibition.

Consider `Cc1cc(C)n2nc(/C(C#N)=C/c3ccccn3)c(C#N)c2n1`, for which the IC50 is 0.97 µM and the IC90 is 17.6 µM.

Turning to `O=c1oc2ccccc2c2c1nc(C(F)(F)F)n2-c1ccccc1`, the IC50 was 4.39 µM and the IC90 worked out at 31.1 µM.

On to `Cc1ccc(C2=NN(C)c3nc4ccccc4n3C2)cc1`, for which the IC50 is 20.4 µM and the IC90 stood at 78.3 µM.

On to `Cc1ccc(O)c(C(=O)CC(=O)c2ccccc2Cl)c1`, for which the IC50 was 10.7 µM and the IC90 came to 40.1 µM.

As to `CC1(C)c2cc(Cl)ccc2-n2c1cc(O)c(-c1ccccc1)c2=O`, the IC50 was 4.43 µM and the IC90 worked out at 10.8 µM.

For the compound `O=C(NCCc1ccccc1)[C@@H]1CC=C[C@@H]2CCN(Cc3ccc(Cl)c(Cl)c3)C(=O)[C@@H]21`, the IC50 is 51.3 µM and the IC90 worked out at 79.1 µM.

With `C=CCOc1ccc(/C=C/C(=O)OCC(=O)NCC2CCCO2)cc1` (stereo not drawn), the IC50 was 98.7 µM and the IC90 was more than 100 µM.

Consider `COc1ccc(-c2cn(Cc3ccc(C(=O)NCc4ccc(C)cc4)cc3)c(C(C)N)n2)cc1` (stereo not drawn), for which the IC50 is 46.5 µM and the 90% effect concentration (IC90) was found to be 53.2 µM.

Regarding `CCCCn1nc(C(=O)N[C@@H](CCSC)c2nc3ccccc3[nH]2)c2ccccc2c1=O`, the IC50 was 53 µM and the IC90 turned out to be 78.5 µM.

Turning to `CCOC(=O)CN[C@H]1CCC2C3CC=C4C[C@@H](O)CC[C@]4(C)C3CC[C@@]21C` (stereo partly drawn), the IC50 is 1.41 µM and the IC90 amounted to 8.37 µM.

Consider `CCc1cc(OCCCCNCc2ccccc2)ccc1Cl`, for which the IC50 is 26.3 µM and the IC90 came out at 30.4 µM.

For the compound `O=C1C(c2ccccc2)=[N+]([O-])c2ccccc21`, the IC50 was 95.8 µM and the IC90 was more than 100 µM.

For `COC(=O)Cn1nc(-c2ccccc2)c2cc(Cl)ccc21`, the IC50 was 8.72 µM and the IC90 turned out to be 51.7 µM.

On to `Cc1c(Cl)cccc1NC(=O)CN1CCC(C(O)(c2ccccc2)c2ccccc2)CC1`, for which the IC50 was 36.1 µM and the IC90 was more than 100 µM.

Take `C=CCNc1oc(-c2ccc(-c3ccccc3)cc2)nc1C#N`: the IC50 was 12.2 µM and the IC90 was 13.7 µM.

`Nc1cc(C(=O)OCC(=O)NNC(=O)c2cccs2)ccc1Cl`: the IC50 was 64.2 µM and the IC90 was more than 100 µM.

Consider `COc1ccc(-c2nnc(SCC(=O)N3CCc4ccccc4C3)o2)cc1`, for which the IC50 was 17.6 µM and the IC90 is 29.2 µM.

As to `CCCCn1cnc2cc(NCc3cccc(OC)c3O)ccc21`, the IC50 was 80.2 µM and the IC90 was more than 100 µM.

With `O=C(Cc1ccc(Nc2nc3ccc(Br)cc3[nH]2)cc1)NCCc1cccs1`, the IC50 was 23.5 µM and the IC90 turned out to be 31.2 µM.

Turning to `CC[n+]1c(/C=C/N(C)c2ccccc2)n(-c2ccccc2)c2ccc(-c3nc4ccccc4s3)cc21`, the IC50 is 0.87 µM and the IC90 amounted to 1.27 µM.

`O=C(OCC(=O)N1CCN(C(=O)c2ccco2)CC1)c1cc(-c2cccc(Br)c2)nc2ccccc12`: the IC50 was 95.2 µM and the IC90 was more than 100 µM.

For the compound `COc1ccc2[nH]c3c(C)c4ccncc4c(C)c3c2c1`, the IC50 is 0.89 µM and the IC90 came to 2.68 µM.

Regarding `CCCCSCCCNC(=O)c1cn(CC)c2ccc(S(=O)(=O)N3CCOCC3)cc2c1=O`, the IC50 is 23.7 µM and the IC90 was found to be 44.9 µM.

Consider `O=C1Nc2ccc(Br)cc2/C1=C/C(=O)c1ccc2c(c1)OCO2`, for which the IC50 is 7.71 µM and the IC90 amounted to 18.1 µM.

With `O=C(C1CC1)N1CCCC(c2ccc(Cl)cc2)=N1`, the IC50 was 33.1 µM and the IC90 came to 50.2 µM.

Regarding `CC1=C(C)C(=O)C(CCCCC#CCCCC#CCO)=C(C)C1=O`, the IC50 is 10.9 µM and the IC90 was 18.7 µM.

`Cc1ccccc1Nc1nc(N)nc(COC(=O)c2ccc([N+](=O)[O-])o2)n1`: the half-maximal inhibitory concentration (IC50) was 0.49 µM and the IC90 was 2.46 µM.

With `Cc1ccc(NC(=O)c2sccc2-n2cccc2)c(C)c1`, the IC50 was 28.2 µM and the IC90 was determined as 82.9 µM.

Take `COc1ccc(-c2nc(CN3CCN(c4cc(C)nc(C)c4)CC3)c(C)o2)c2ccccc12`: the IC50 is 19.6 µM and the IC90 is 25.2 µM.

Turning to `CCOC(=O)[C@@H]1[C@H]2COc3cc(OC)ccc3[C@H]2N2C(=O)N(c3ccc(C(F)(F)F)cc3)C(=O)[C@]12C`, the IC50 is 5.77 µM and the IC90 is 6.48 µM.

In the case of `CCc1cc2c(=O)n(C(C)C(=O)OC3CCCCC3)cnc2s1` (stereo not drawn), the IC50 was 17.8 µM and the IC90 came to 27.8 µM.

As for `Nc1ccc(-c2nc3nc(N)nc(N)c3nc2-c2ccc(N)cc2)cc1`, the concentration for half-maximal inhibition (IC50) was 43 µM and the concentration for an effect of 90% (IC90) came out at 57.5 µM.

Regarding `O=C(C1=C[C@@H](c2csc3ccccc23)C[C@@H](OCCCCO)O1)N1CCN(Cc2ccc3c(c2)OCO3)CC1`, the IC50 is 28.5 µM and the IC90 was determined as 47.8 µM.

On to `Cc1ccn2c(NC3CCCCC3)c(-c3cccc(-c4cccc(Cl)c4)c3)nc2c1`, for which the IC50 is 14.2 µM and the IC90 is 27 µM.

As for `CCCOC(=O)c1ccc(-c2ccc(C=O)o2)cc1`, the IC50 was 0.82 µM and the IC90 is more than 100 µM.

Turning to `CC1=NNC(=O)/C1=C\c1cn(-c2ccccc2)nc1-c1ccc(Cl)cc1`, the IC50 is 28.7 µM and the IC90 was found to be 37.2 µM.

In the case of `O=C1/C(=C\c2ccncc2)CCc2ccccc21`, the half-inhibitory concentration (IC50) is 20.8 µM and the IC90 came out at 34.8 µM.

As to `CCOc1cc2c(cc1OCC)-n1cccc1C(c1ccc(C(C)C)cc1)NC2` (stereo not drawn), the IC50 is 20.6 µM and the IC90 was found to be 29.6 µM.

Regarding `O=C(Nc1cccnc1Cl)c1cc(-c2ccco2)on1`, the IC50 was 41.4 µM and the 90% effect concentration (IC90) was more than 100 µM.

As to `CC(C)c1nnc(NC(=O)CCC(=O)N2CCN(c3ccc(Cl)cc3)CC2)s1`, the IC50 is 11.8 µM and the IC90 is 29.5 µM.

As to `Oc1ccccc1NCC(O)Cn1ccc2ccccc21` (stereo not drawn), the IC50 was 5.37 µM and the IC90 was 8.32 µM.

Regarding `CCOC(=O)C1CCN(CC(O)COc2ccc(C(C)(C)CC)cc2)CC1` (stereo not drawn), the IC50 was 22.8 µM and the IC90 turned out to be 29.5 µM.

As to `CCCNC(=S)Nc1ccc(Nc2ccccc2)cc1`, the IC50 was 31.7 µM and the IC90 was 52 µM.

For `CCOc1ccc(N2CC(=O)Nc3ccccc3NCC2=O)cc1`, the IC50 is 52.7 µM and the IC90 is 78.2 µM.

As to `CN(C)C(=O)c1ccc(NC(=O)COC(=O)c2cc3c(s2)CCCCC3)cc1`, the IC50 is 45.8 µM and the IC90 is more than 100 µM.

With `C/C(O)=C\c1nc2ccccc2oc1=O`, the IC50 is 0.77 µM and the IC90 worked out at 0.86 µM.

As for `Cc1sc2ncnc(Oc3ccc(-n4ccnc4)cc3)c2c1C`, the IC50 is 33.3 µM and the 90% effect concentration (IC90) is 55.5 µM.

Regarding `COc1ccccc1OCCN1CSC(=S)N(C)C1`, the IC50 is 6.34 µM and the 90% effect concentration (IC90) was 15.3 µM.

Take `CCOC(=O)c1c(C)n(-c2ccc(C)cc2)c2ccc(OCC(O)CNCC3CCCO3)cc12` (stereo not drawn): the IC50 is 22.7 µM and the IC90 amounted to 31 µM.

Turning to `N/C(Cc1ccc([N+](=O)[O-])cc1)=N\OC(=O)c1ccc2ccccc2c1`, the IC50 was 22.5 µM and the IC90 was more than 100 µM.

As for `Cc1oc(-c2cccc(Cl)c2)nc1CN1CCC(C(=O)N2CCN(c3ccccc3F)CC2)CC1`, the concentration for half-maximal inhibition (IC50) was 20.8 µM and the IC90 amounted to 26.3 µM.

With `COc1cccc(N2CCN(c3ncnc4c3[nH]c3ccccc34)CC2C)c1` (stereo not drawn), the IC50 was 24.2 µM and the IC90 is 35.5 µM.

As for `Cc1nc2ccc(NC(=O)c3ccc([N+](=O)[O-])cc3[N+](=O)[O-])cc2s1`, the IC50 was 1.62 µM and the IC90 was found to be 16.7 µM.

Take `Cc1cc(N/N=C/c2ccccc2[N+](=O)[O-])nc(-n2nc(C)cc2C)n1`: the IC50 was 0.92 µM and the IC90 came to 4.72 µM.

In the case of `O=C(COC(=O)C1=COCCO1)Nc1cccc(Oc2ccccc2)c1`, the IC50 was 5.18 µM and the 90% effect concentration (IC90) stood at 55.4 µM.

Consider `CC(OC(=O)COc1ccc(Nc2ccccc2)cc1)C(=O)N(C)c1ccccc1` (stereo not drawn), for which the IC50 is less than 0.2 µM and the IC90 was 4.17 µM.

Turning to `C(=N\Nc1ccc2ccccc2n1)/c1ccc2c(c1)OCCO2`, the IC50 is 2.77 µM and the IC90 is 4.03 µM.

For `CCN1/C(=C/c2ccc3cc(C)ccc3[n+]2CC)Sc2ccccc21`, the IC50 was 1.41 µM and the IC90 is 1.61 µM.

Take `CCOC(=O)c1nnc(-c2ccccc2)nc1NCc1ccccc1`: the IC50 was 14.6 µM and the IC90 was more than 100 µM.

On to `O=[N+]([O-])c1ccc(O)c(-c2cc(C(F)(F)F)nc(-c3ccccc3)n2)c1`, for which the IC50 is 22.2 µM and the IC90 is 23.3 µM.

In the case of `CCc1ccc2c(c1)C1(C(=O)N2)N2CCCC2C(C(=O)c2ccc3ccccc3c2)C12C(=O)Nc1ccccc12` (stereo not drawn), the IC50 is 13.1 µM and the IC90 was determined as 30.9 µM.

Compound `COc1ccccc1N1C(=O)NC(=O)/C(=C/c2ccc([N+](=O)[O-])s2)C1=O` registered an IC90 of more than 100 µM.

Turning to `CCOc1ccc(-c2[nH]ncc2-c2ccc(Cl)cc2)c(O)c1`, the IC50 is 46.8 µM and the IC90 was determined as 66.5 µM.

Take `Cc1cccc(C(=O)OCC(=O)N2CCc3ccccc3C2)c1O`: the IC50 is 46.3 µM and the IC90 is more than 100 µM.

With `COC(=O)/C(=C1/Oc2cc(C)oc(=O)c2S1)C(F)(F)F`, the IC50 is 6.24 µM and the IC90 was more than 100 µM.

In the case of `Cc1ccn2nc(S(=O)(=O)Nc3c(F)cccc3F)nc2n1`, the IC50 was 6.95 µM and the IC90 was found to be 9.3 µM.

With `CCOC(=O)c1ccc(NC(=O)CCc2nc(-c3ccc(Cl)cc3)no2)cc1`, the IC50 is 27.4 µM and the IC90 was more than 100 µM.

With `CC(O)CNc1nc2ccccc2n1-c1ncnc2sc3c(c12)CCC3` (stereo not drawn), the IC50 was 27.6 µM and the IC90 is 36.6 µM.

Take `C[C@]12CC[C@@H]3c4ccc(O)cc4CC[C@H]3[C@@H]1CC[C@@H]2OC(=O)CCC1CCCC1`: the IC50 was 6.41 µM and the IC90 came out at 10.9 µM.

On to `COc1ccc(-c2nnn(CC(=O)OC3CCCCC3)n2)cc1OC`, for which the concentration for half-maximal inhibition (IC50) is 5.71 µM and the IC90 was 62.7 µM.

`CC(C)Cn1c(N2CCN(C(=O)/C=C/c3ccccc3)CC2)nc2ccccc21`: the IC50 is 23.7 µM and the IC90 turned out to be 27.2 µM.

As to `COc1ccc(-c2ccc(-c3noc(C(C)C)n3)c(OC)n2)cc1`, the IC50 was 10.7 µM and the IC90 is 26.7 µM.
